The results in this text go back to the OligoGym collection.

The series has as its target UBE3A-ATS. In words: mouse, dose not given. Conditions: ASO.

HELM strings list units from the 5' end as sugar, base in round brackets, then linkage (d deoxyribose, r ribose, m 2'-O-methyl, p phosphodiester). Strings are as the collection lists them; they lack the last nucleoside at the 3' end of the tested compound. [moe] = 2'-O-(2-methoxyethyl) (MOE); [sp] = phosphorothioate linkage; [m5C] = 5-methylcytosine

Regarding “RNA1{[moe](G)[sp].[moe](T)p.[moe]([m5C])p.[moe](A)p.[moe](T)p.d([m5C])[sp].d(A)[sp].d([m5C])[sp].d([m5C])[sp].d(T)[sp].d([m5C])[sp].d(T)[sp].d([m5C])[sp].d(T)[sp].d(T)[sp].[moe]([m5C])p.[moe](A)p.[moe](G)[sp].[moe](G)}$$$$ (last 3' nucleoside missing)”, the 3 h FOB score stood at 1 score 0-7. Turning to “RNA1{[moe](G)[sp].[moe](T)p.[moe]([m5C])p.[moe](A)p.[moe](T)p.d([m5C])[sp].d(T)[sp].d([m5C])[sp].d(G)[sp].d(G)[sp].d(G)[sp].d(T)[sp].d(A)[sp].d(T)[sp].d(A)[sp].[moe](T)p.[moe](A)p.[moe](A)[sp].[moe](A)}$$$$ (last 3' nucleoside missing)”, the 3 h FOB score is 5.5 score 0-7. The substance “RNA1{[moe](G)[sp].[moe](T)p.[moe]([m5C])p.[moe](A)p.d(T)[sp].d([m5C])[sp].d(T)[sp].d([m5C])[sp].d(G)[sp].d(G)[sp].d(G)[sp].d(T)[sp].d(A)[sp].d(T)[sp].[moe](A)p.[moe](T)p.[moe](A)p.[moe](A)[sp].[moe](A)}$$$$ (last 3' nucleoside missing)” gave a 3 h FOB score of 4 score 0-7.

On to “RNA1{[moe](G)[sp].[moe](T)p.[moe]([m5C])p.[moe](T)p.[moe](T)p.d([m5C])[sp].d(A)[sp].d(T)[sp].d(T)[sp].d(A)[sp].d(T)[sp].d(T)[sp].d([m5C])[sp].d(T)[sp].d([m5C])[sp].[moe](T)p.[moe](A)p.[moe](G)[sp].[moe](T)}$$$$ (last 3' nucleoside missing)”, for which the 3 h FOB score amounted to 4.7 score 0-7. With “RNA1{[moe](G)[sp].[moe](T)p.[moe]([m5C])p.[moe](T)p.[moe]([m5C])p.d(T)[sp].d(G)[sp].d([m5C])[sp].d(T)[sp].d([m5C])[sp].d(A)[sp].d(G)[sp].d(T)[sp].d(T)[sp].d(A)[sp].[moe](G)p.[moe](G)p.[moe](T)[sp].[moe](T)}$$$$ (last 3' nucleoside missing)” the figure was 1 score 0-7; with “RNA1{[moe](G)[sp].[moe](T)p.[moe]([m5C])p.[moe](T)p.[moe]([m5C])p.d([m5C])[sp].d([m5C])[sp].d(T)[sp].d([m5C])[sp].d(T)[sp].d(T)[sp].d(A)[sp].d(G)[sp].d(T)[sp].d(G)[sp].[moe](A)p.[moe](T)p.[moe](T)[sp].[moe](G)}$$$$ (last 3' nucleoside missing)”, 4 score 0-7. With “RNA1{[moe](G)[sp].[moe]([m5C])[sp].[moe]([m5C])[sp].[moe](T)[sp].[moe](A)[sp].d(A)[sp].d(T)[sp].d(A)[sp].d(T)[sp].d(G)[sp].d(T)[sp].d(G)[sp].d(T)[sp].d([m5C])[sp].d(A)[sp].[moe](T)[sp].[moe]([m5C])[sp].[moe]([m5C])[sp].[moe](T)}$$$$ (last 3' nucleoside missing)” the figure was 6.8 score 0-7. Take “RNA1{[moe](G)[sp].[moe]([m5C])[sp].[moe]([m5C])[sp].[moe]([m5C])[sp].[moe](A)[sp].d(T)[sp].d(G)[sp].d(G)[sp].d(A)[sp].d(T)[sp].d(G)[sp].d(G)[sp].d(T)[sp].d(T)[sp].d(G)[sp].[moe](T)[sp].[moe]([m5C])[sp].[moe](A)[sp].[moe](A)}$$$$ (last 3' nucleoside missing)”: the 3 h FOB score is 7 score 0-7. “RNA1{[moe](G)[sp].[moe]([m5C])p.[moe](A)p.[moe](A)p.[moe](A)p.d(T)[sp].d(A)[sp].d([m5C])[sp].d(A)[sp].d(A)[sp].d(T)[sp].d(G)[sp].d(G)[sp].d(T)[sp].d(A)[sp].[moe](A)p.[moe](T)p.[moe]([m5C])[sp].[moe](G)}$$$$ (last 3' nucleoside missing)”: the 3 h FOB score was 4.2 score 0-7.

The substance “RNA1{[moe](G)[sp].[moe]([m5C])p.[moe](A)p.[moe](A)p.[moe](T)p.d(G)[sp].d(G)[sp].d(A)[sp].d([m5C])[sp].d(T)[sp].d(T)[sp].d(A)[sp].d(G)[sp].d(T)[sp].d(A)[sp].[moe]([m5C])p.[moe](A)p.[moe]([m5C])[sp].[moe](A)}$$$$ (last 3' nucleoside missing)” registered a 3 h FOB score of 1 score 0-7. With “RNA1{[moe](G)[sp].[moe]([m5C])p.[moe](A)p.[moe](G)p.[moe]([m5C])p.d(T)[sp].d([m5C])[sp].d(T)[sp].d(T)[sp].d(T)[sp].d(G)[sp].d(T)[sp].d(A)[sp].d(G)[sp].d(G)[sp].[moe]([m5C])p.[moe]([m5C])p.[moe]([m5C])[sp].[moe](A)}$$$$ (last 3' nucleoside missing)” the figure was 3.3 score 0-7; with “RNA1{[moe](G)[sp].[moe]([m5C])p.[moe](A)p.[moe](T)[sp].d(A)[sp].d([m5C])[sp].d([m5C])[sp].d([m5C])[sp].d(A)[sp].d(G)[sp].d(G)[sp].d(G)[sp].[moe](T)p.[moe](A)p.[moe](G)p.[moe](G)[sp].[moe](A)}$$$$ (last 3' nucleoside missing)”, 0 score 0-7; with “RNA1{[moe](G)[sp].[moe]([m5C])p.[moe](A)p.[moe](T)p.[moe](A)[sp].d([m5C])[sp].d([m5C])[sp].d([m5C])[sp].d(A)[sp].d(G)[sp].d(G)[sp].d(G)[sp].d(T)[sp].[moe](A)p.[moe](G)p.[moe](G)[sp].[moe](A)}$$$$ (last 3' nucleoside missing)”, 1 score 0-7. With “RNA1{[moe](G)[sp].[moe]([m5C])p.[moe](A)p.[moe](T)p.[moe](A)p.[moe]([m5C])[sp].d([m5C])[sp].d([m5C])[sp].d(A)[sp].d(G)[sp].d(G)[sp].d(G)[sp].d(T)[sp].d(A)[sp].[moe](G)p.[moe](G)[sp].[moe](A)}$$$$ (last 3' nucleoside missing)” the figure was 1 score 0-7; with “RNA1{[moe](G)[sp].[moe]([m5C])p.[moe](A)p.[moe](T)p.[moe](A)p.[moe]([m5C])p.d([m5C])[sp].d([m5C])[sp].d(A)[sp].d(G)[sp].d(G)[sp].d(G)[sp].d(T)[sp].d(A)[sp].d(G)[sp].d(G)[sp].[moe](A)p.[moe](T)[sp].[moe](T)}$$$$ (last 3' nucleoside missing)”, 1 score 0-7; with “RNA1{[moe](G)[sp].[moe]([m5C])p.[moe](A)p.[moe](T)p.[moe](A)p.d([m5C])[sp].d([m5C])[sp].d([m5C])[sp].d(A)[sp].d(G)[sp].d(G)[sp].d(G)[sp].d(T)[sp].d(A)[sp].d(G)[sp].[moe](G)p.[moe](A)p.[moe](T)[sp].[moe](T)}$$$$ (last 3' nucleoside missing)”, 3 score 0-7. “RNA1{[moe](G)[sp].[moe]([m5C])p.[moe](A)p.[moe](T)p.[moe](G)p.d(A)[sp].d(T)[sp].d(T)[sp].d([m5C])[sp].d(T)[sp].d(A)[sp].d(A)[sp].d([m5C])[sp].d([m5C])[sp].d(A)[sp].[moe](T)p.[moe](A)p.[moe](G)[sp].[moe](A)}$$$$ (last 3' nucleoside missing)” had a 3 h FOB score of 1 score 0-7. With “RNA1{[moe](G)[sp].[moe]([m5C])p.[moe](A)p.[moe](T)p.[moe](G)p.d(T)[sp].d(G)[sp].d(G)[sp].d(G)[sp].d([m5C])[sp].d([m5C])[sp].d(T)[sp].d([m5C])[sp].d(T)[sp].d(A)[sp].[moe](T)p.[moe](T)p.[moe](A)[sp].[moe](A)}$$$$ (last 3' nucleoside missing)” the figure was 4 score 0-7; with “RNA1{[moe](G)[sp].[moe]([m5C])p.[moe](A)p.[moe](T)p.[moe](T)p.d(G)[sp].d(G)[sp].d([m5C])[sp].d(T)[sp].d(T)[sp].d([m5C])[sp].d(A)[sp].d(T)[sp].d(A)[sp].d(T)[sp].[moe](T)p.[moe](T)p.[moe]([m5C])[sp].[moe](T)}$$$$ (last 3' nucleoside missing)”, 1 score 0-7; with “RNA1{[moe](G)[sp].[moe]([m5C])p.[moe](A)p.[moe](T)p.d(A)[sp].d([m5C])[sp].d([m5C])[sp].d([m5C])[sp].d(A)[sp].d(G)[sp].d(G)[sp].d(G)[sp].d(T)[sp].d(A)[sp].[moe](G)p.[moe](G)p.[moe](A)p.[moe](T)[sp].[moe](T)}$$$$ (last 3' nucleoside missing)”, 1 score 0-7. “RNA1{[moe](G)[sp].[moe]([m5C])p.[moe](A)p.[moe]([m5C])p.[moe](A)p.d(T)[sp].d(A)[sp].d(G)[sp].d(A)[sp].d([m5C])[sp].d([m5C])[sp].d(A)[sp].d(T)[sp].d(A)[sp].d(G)[sp].[moe]([m5C])p.[moe](T)p.[moe](G)[sp].[moe](A)}$$$$ (last 3' nucleoside missing)” displayed a 3 h FOB score of 3.3 score 0-7. With “RNA1{[moe](G)[sp].[moe]([m5C])p.[moe](A)p.[moe]([m5C])p.[moe](A)p.d([m5C])[sp].d([m5C])[sp].d(T)[sp].d(G)[sp].d(G)[sp].d(A)[sp].d(T)[sp].d(T)[sp].d(T)[sp].d([m5C])[sp].[moe](A)p.[moe]([m5C])p.[moe](T)[sp].[moe](A)}$$$$ (last 3' nucleoside missing)” the figure was 2 score 0-7; with “RNA1{[moe](G)[sp].[moe]([m5C])p.[moe](A)p.[moe]([m5C])p.[moe](T)p.d(T)[sp].d(A)[sp].d(A)[sp].d(A)[sp].d(T)[sp].d(T)[sp].d(T)[sp].d(A)[sp].d(T)[sp].d([m5C])[sp].[moe](A)p.[moe](G)p.[moe](T)[sp].[moe](T)}$$$$ (last 3' nucleoside missing)”, 3 score 0-7. The substance “RNA1{[moe](G)[sp].[moe]([m5C])p.[moe](T)p.[moe](A)p.[moe](T)p.d(A)[sp].d(G)[sp].d(G)[sp].d(T)[sp].d(G)[sp].d(T)[sp].d([m5C])[sp].d(A)[sp].d([m5C])[sp].d(A)[sp].[moe](T)p.[moe](A)p.[moe](T)[sp].[moe](T)}$$$$ (last 3' nucleoside missing)” gave a 3 h FOB score of 2 score 0-7.

In turn, “RNA1{[moe](G)[sp].[moe]([m5C])p.[moe](T)p.[moe](A)p.[moe](T)p.d(A)[sp].d([m5C])[sp].d([m5C])[sp].d([m5C])[sp].d([m5C])[sp].d(T)[sp].d(A)[sp].d(G)[sp].d(G)[sp].d(A)[sp].[moe](T)p.[moe]([m5C])p.[moe](A)[sp].[moe](G)}$$$$ (last 3' nucleoside missing)” returned a 3 h FOB score of 3.8 score 0-7.
